Marks after values point to notes of the source that are not given here.
Columns and labels:
[1] = test system: mRNA of collagen I of osteocyte; test: Hybridization in situ of mRNA of collagen I, osteocytes, femur of rats with retinoic acid osteoporosis; format: in vivo, rat; conditions: for Positive Case Nos. of osteocyte (mRNA of collagen I) / Positive percentage of mRNA of collagen I, osteocyte: 100 mg/kg body weight, 10 weeks
Procedure: (§1) The rats were administered drugs for 10 weeks, respectively.
(§2) Collagen I was stained by hybridization in situ, following the directions of the kit. After specific hybridization, mRNA of collagen I was developed by 3,3′-diaminobenzidine (DAB). The slide was routinely dehydrated and mounted.
(§3) X2 test was conducted to the experimental data.

[2] = test system: mRNA of collagen I of chondrocyte; test: Hybridization in situ of mRNA of collagen I, chondrocytes, femur of rats with retinoic acid osteoporosis; format: in vivo, rat
Procedure: as §1, §2, §3

[3] = test system: bone tissue of the rat with osteoporosis caused by retinoic acid; test: Histochemical staining (M-S, T-B, HE, V-K silver) of bone and cartilage; conditions: for Formation of new bone: compared with blank-control group; for Articular cartilage / cartilage matrix: blank-control group as normal reference; for Bone trabeculae in cancellous bone (figure legends): FIGS. 7, 13, 14
Procedure: (§4) Grouping of animals: 66 male 3-month-aged rats were used in the present test. Eight rats were randomly selected as blank-control group, which were fed with normal diet and tap water. The other 58 rats were randomly divided into 9 groups, and were continuously administered retinoic acid with a dosage of 70 mg/kg body weight and volume of 10 ml/kg body weight, and were fed with low calcium diet meanwhile. After two weeks of administration of retinoic acid, stop the drug and thus establishing osteoporosis models.
(4) Calcium citrate group: 6 rats, administered calcium citrate with a dosage of 100 mg/kg body weight
(5) Sodium hydroxyethyl phosphate group: 6 rats, administered sodium hydroxyethyl phosphate with a dosage of 100 mg/kg body weight
(§5) The rats were administered drugs for 10 weeks, respectively. During the whole test period, each group was fed with low calcium diet and de-ionized water except that the blank-control group was fed with normal diet. Then the lower one third of right femur of each rat was extracted, and preserved at −20° C.
(2) Histochemical Staining
a Masson-Goldner Lrichrone staining (M-S staining)
b Toluidine Blue staining (T-B staining)
c Hematoxylin-eosin (HE) staining
d Von Kossa silver staining of partial slice (V-K silver staining).

[4] = test system: collagen I of chondrocyte; test: Immunohistochemical staining of collagen I (ABC method), chondrocytes, rats with retinoic acid osteoporosis; conditions: for Positive Case Nos. of chondrocyte (collagen I immunohistochemical staining) / Positive percentage of collagen I by immunohistochemical staining, chondrocyte: 100 mg/kg body weight, 10 weeks
Procedure: as §4, §5
Collagen I was immunohistochemically stained by ABC method, following the directions of kit. Collagen I was developed by DAB. The slide was routinely dehydrated and mounted. (The detection kit was provided by Wuhan Doctor Microbiologic Engineering Co. Ltd., China. Cat. No: BA0325)
The results were observed by microscopy, which was expressed by positive percentage. X2 test was conducted to the experimental data.

[5] = 100 mg/kg body weight, 10 weeks

Compound	Positive Case Nos. of osteocyte (mRNA of collagen I) [1]	Positive percentage of mRNA of collagen I, osteocyte [1]	Positive Case Nos. of chondrocyte (mRNA of collagen I) [2, 5]	Positive percentage of mRNA of collagen I, chondrocyte [2, 5]	Formation of new bone ([3]; 10 weeks)	Positive Case Nos. of chondrocyte (collagen I immunohistochemical staining) [4]	Positive percentage of collagen I by immunohistochemical staining, chondrocyte [4]	Articular cartilage / cartilage matrix ([3]; 10 weeks)	Bone trabeculae in cancellous bone (figure legends) [3]	Staining of glycogen in cancellous bone (figure legends) ([3]; histochemical staining of glycogen, FIGS. 8, 13, 14)	Positive percentage of mRNA of collagen I compared with Model-control group ([1]; rat, in vivo)	Expression percentage of mRNA of collagen I compared with model-control group ([2]; rat, in vivo)	Nourishing blood vessels of the bone ([3]; 10 weeks)	Osteocollagenous fibers by silver staining (figure legends) ([3]; silver staining, FIGS. 9, 10, 11, 20)	Positive percentages of collagen I by immunohistochemistry, comparison of groups ([4]; rat, in vivo)
O=C([O-])CC(O)(CC(=O)[O-])C(=O)[O-].O=C([O-])CC(O)(CC(=O)[O-])C(=O)[O-].[Ca+2].[Ca+2].[Ca+2] [Calcium citrate, calcium citrate]	2	33.3%	0 (0%)	0 (0%)	less than those of the blank-control group	0 (0%)**	0 (0%)**	–	–	–	–	–	–	–	–
O=P([O-])([O-])OCCO.[Na+].[Na+] [Sodium hydroxyethyl phosphate, sodium hydroxyethyl phosphate]	2	33.3%	–	–	–	2	33.3%	developed retrograde affection	excessive and disorganized	less glycogen	–	–	–	–	–
calcium L-threonate	–	–	–	–	increased	–	–	Cartilage collagen fibers and matrix thickened	thick, dense and ordered	–	significantly higher than Model-control group	significantly higher than that of model-control group	increased	parallel, regular and abundant	relatively higher

— patent US6713513B2, “Method for treating cartilage related diseases” (Juneng Industry Co., Ltd., priority 2001, dated 2004)
